Measurements reported in patent US7902354B2, “Lapachone compounds and methods of use thereof” (ArQule, Inc., priority 2006, dated 2011).

Columns and labels:
[1] = system: HT-29 human colon carcinoma cells; experiment: MTS cell viability assay, HT-29 human colon carcinoma cells; type: cell-based; conditions: 4 h compound incubation, read-out: IC50 Values, Cancerous Cells, Colon HT-29
[2] = system: DU-145 human prostate carcinoma cells; experiment: MTS cell viability assay, DU-145 human prostate carcinoma cells; type: cell-based; conditions: DU-145, 4 h compound incubation, MTS, read-out: IC50 Values, Cancerous Cells, Prostate DU-145
[3] = system: A549 human lung carcinoma cells; experiment: MTS cell viability assay, A549 human lung carcinoma cells; type: cell-based; conditions: A549, 4 h compound incubation, MTS, read-out: IC50 Values, Cancerous Cells, Lung A549
E2F-1 = E2F-1 induction in HT-29 cells; type: cell-based, human
From the text: Another effect of the compounds of the present invention is the induction or elevation of activity (e.g. elevation of the level) of one or more checkpoint molecules (i.e., a member of the E2F family of transcription factors). Studies have shown that β-lapachone induces activation of E2F1 checkpoint pathway in nuclei of cancer cells but not in normal cells, resulting in the arrest of cancer cells in G1 and/or S phase. Several compounds of the present invention were effective in activating the E2F1 checkpoint pathway (e.g. elevation of E2F1 levels), thus causing G1 and/or S phase arrest. Furthermore, the compounds of the present invention have no significant toxic effects on normal cells (See. Table 1). The assays of the present invention as shown in Table 1 and methods of measuring induction of E2F1 activity and elevation of E2F1 levels can be carried out following the descriptions found in Li et al., (2003) Proc Natl Acad Sci USA. 100(5): 2674-8 and U.S. Patent Application Publication No. 2002/0169135, both incorporated herein by reference.

[4] = system: DLD-1 human colon carcinoma cells; experiment: MTS cell viability assay, DLD-1 human colon carcinoma cells; type: cell-based; conditions: DLD-1, 4 h compound incubation, MTS, read-out: IC50 Values, Cancerous Cells, Colon DLD-1
[5] = system: NCM-460 normal colon epithelial cells; experiment: MTS cell viability assay, NCM-460 normal colon epithelial cells; type: cell-based; conditions: for IC50: Homo sapiens, NCM460, NCM-460, 4 h compound incubation, MTS, read-out: IC50 Values, Normal Cells, Colon NCM-460; for Fold Selectivity (NCM-460/DLD1): ratio of IC50 NCM-460 / DLD1
[6] = system: K-562 human leukemia cells; experiment: MTS cell viability assay, K-562 human leukemia cells; type: cell-based; conditions: K562, K-562, 4 h compound incubation, MTS, read-out: IC50 Values, Cancerous Cells, Leukemia K-562
[7] = system: PACA-2 human pancreatic carcinoma cells; experiment: MTS cell viability assay, PACA-2 human pancreatic carcinoma cells; type: cell-based; conditions: PACA-2, 4 h compound incubation, MTS, read-out: IC50 Values, Cancerous Cells, Pancreas PACA-2

Structure (SMILES) | IC50 [1] | IC50 [2] | IC50 [3] | E2F-1 Induction (HT-29) (E2F-1) | IC50 [4] | IC50 [5] | Fold Selectivity (NCM-460/DLD1) [5] | IC50 [6] | IC50 [7]
O=C1C(=O)c2ccccc2C2=C1SCC1(CCN(C(=O)c3ccc(Cl)c(Cl)c3)CC1)O2 [Compound 53, 1′-(3,4-dichlorobenzoyl)spiro[naphtho[1,2-b][1,4]oxathiine-2,4′-piperidine]-5,6-dione] | 2.21 µM | 1.37 µM | 3.83 µM | YES | 1.42 µM | 8.52 µM | 6.0 | 1.44 µM | 1.06 µM
O=C1C(=O)c2ccccc2C2=C1SCC1(CCN(C(=O)c3cccc(Cl)c3)CC1)O2 [Compound 55, 1′-(3-chlorobenzoyl)spiro[naphtho[1,2-b][1,4]oxathiine-2,4′-piperidine]-5,6-dione] | 5.74 µM | 3.85 µM | 4.57 µM | Yes | 2.1 µM | 11.2 µM | 5.3 | 3.93 µM | 3.36 µM
O=C1C(=O)c2ccccc2C2=C1SCC1(CCN(C(=O)Oc3cccc(C(F)(F)F)c3)CC1)O2 [Compound 96, 3-(trifluoromethyl)phenyl 5,6-dioxo-5,6-dihydro-1′H-spiro[naphtho[1,2-b][1,4]oxathiine-2,4′-piperidine]-1′-carboxylate] | 20.5 µM | 20 µM | > 100 µM | Yes | 31.7 µM | 100 µM | 3.2 | 36.3 µM | 26.7 µM
O=C1C(=O)c2ccccc2C2=C1SCC1(CCN(C(=O)Oc3ccc(F)cc3)CC1)O2 [Compound 97, 4-fluorophenyl 5,6-dioxo-5,6-dihydro-1′H-spiro[naphtho[1,2-b][1,4]oxathiine-2,4′-piperidine]-1′-carboxylate] | 12.6 µM | 6.59 µM | 26 µM | YES | 4.39 µM | 13.3 µM | 3.0 | 4.28 µM | 4.93 µM
O=C1C(=O)c2ccccc2C2=C1SCC1(CCN(Cc3c(F)cccc3Cl)CC1)O2 [Compound 129, 1′-(2-chloro-6-fluorobenzyl)spiro[naphtho[1,2-b][1,4]oxathiine-2,4′-piperidine]-5,6-dione] | 7.05 µM | 6.75 µM | 66.9 µM | Yes | 3.98 µM | 16.5 µM | 4.1 | 4.44 µM | 4.12 µM
O=C1C(=O)c2ccccc2C2=C1SCC1(CCN(CC(O)Cc3ccccc3)CC1)O2 (stereo not shown) [Compound 163, 1′-(2-hydroxy-3-phenylpropyl)spiro[naphtho[1,2-b][1,4]oxathiine-2,4′-piperidine]-5,6-dione] | 4.48 µM | 1.38 µM | 4.31 µM | Yes | 0.714 µM | 2.84 µM | 4.0 | 1 µM | 0.764 µM
CC(C)COCC(O)CN1CCC2(CC1)CSC1=C(O2)c2ccccc2C(=O)C1=O (stereo not shown) [Compound 174, 1′-(2-hydroxy-3-isobutoxypropyl)spiro[naphtho[1,2-b][1,4]oxathiine-2,4′-piperidine]-5,6-dione] | – | 1.55 µM | 6.29 µM | – | 1.3 µM | 3.2 µM | 2.5 | 1.61 µM | 1.25 µM
COc1ccc(OCC(O)CN2CCC3(CC2)CSC2=C(O3)c3ccccc3C(=O)C2=O)cc1 (stereo not shown) [Compound 175, 1′-[2-hydroxy-3-(4-methoxyphenoxy)propyl]spiro[naphtho[1,2-b][1,4]oxathiine-2,4′-piperidine]-5,6-dione] | – | 1.59 µM | 7.29 µM | – | 1.42 µM | 6.12 µM | 4.3 | 3.27 µM | 1.39 µM
O=C1C(=O)c2ccccc2C2=C1SCC1(CCN(CC(O)COc3ccc(Cl)cc3)CC1)O2 (stereo not shown) [Compound 176, 1′-[3-(4-chlorophenoxy)-2-hydroxypropyl]spiro[naphtho[1,2-b][1,4]oxathiine-2,4′-piperidine]-5,6-dione] | – | 2.43 µM | 5.14 µM | – | 2.4 µM | 11 µM | 4.6 | 4.76 µM | 3 µM
CC(O)(CN1CCC2(CC1)CSC1=C(O2)c2ccccc2C(=O)C1=O)c1ccccc1 (stereo not shown) [Compound 177, 1′-(2-hydroxy-2-phenylpropyl)spiro[naphtho[1,2-b][1,4]oxathiine-2,4′-piperidine]-5,6-dione] | – | 4.55 µM | 14.9 µM | – | 6.22 µM | 20.5 µM | 3.3 | 8.99 µM | 4.18 µM
O=C1C(=O)c2ccccc2C2=C1SCC1(CCN(C[C@@H](O)COc3ccc(F)cc3)CC1)O2 [Compound 181, 1′-[(2R)-3-(4-fluorophenoxy)-2-hydroxypropyl]spiro[naphtho[1,2-b][1,4]oxathiine-2,4′-piperidine]-5,6-dione] | 3.11 µM | 1.52 µM | 4.93 µM | Yes | 0.734 µM | 4.53 µM | 6.2 | 1.32 µM | 0.909 µM
O=C1C(=O)c2ccccc2C2=C1SCC1(CCN(c3cnccn3)CC1)O2 [Compound 229, 1′-pyrazin-2-ylspiro[naphtho[1,2-b][1,4]oxathiine-2,4′-piperidine]-5,6-dione] | – | 4.63 µM | 22.6 µM | – | 4.27 µM | 12.8 µM | 3.0 | 4.14 µM | 4.33 µM
O=C1C(=O)c2ccccc2C2=C1SCC1(CCN(C(=O)C3CCCCC3C(=O)O)CC1)O2 (stereo not shown) [Compound 231, 2-[(5,6-dioxo-5,6-dihydro-1′H-spiro[naphtho[1.2-b][1,4]oxathiine-2,4′-piperidin]-1′-yl)carbonyl]cyclohexanecarboxylic acid] | – | 12 µM | 27.9 µM | – | 9.27 µM | 12.3 µM | 1.3 | 10.6 µM | 4.84 µM
O=C(O)CCC(=O)N1CCC2(CC1)CSC1=C(O2)c2ccccc2C(=O)C1=O [Compound 233, 4-(5,6-dioxo-5,6-dihydro-1′H-spiro[naphtho[1,2-b][1,4]oxathiine-2,4′-piperidin]-1′-yl)-4-oxobutanoic acid] | – | 40.4 µM | > 100 µM | – | 64.3 µM | 48.8 µM | 0.8 | 62.8 µM | 56.3 µM
O=C(O)CSCC(=O)N1CCC2(CC1)CSC1=C(O2)c2ccccc2C(=O)C1=O [Compound 234, {[2-(5,6-dioxo-5,6-dihydro-1′H-spiro[naphtho[1,2-b][1,4]oxathiine-2,4′-piperidine]-1′-yl)-2-oxoethyl]thio}acetic acid] | – | > 100 µM | > 100 µM | – | > 100 µM | > 100 µM | – | > 100 µM | 55.6 µM
O=C1C(=O)c2ccccc2C2=C1SCC1(CCN(C(=O)C3CCC3C(=O)O)CC1)O2 (stereo not shown) [Compound 235, 2-[(5,6-dioxo-5,6-dihydro-1′H-spiro[naphtho[1,2-b][1,4]oxathiine-2,4′-piperidin]-1′-yl)carbonyl]cyclobutanecarboxylic acid] | – | 54.4 µM | > 100 µM | – | 69.6 µM | 85.8 µM | 1.2 | 52.4 µM | 48.5 µM
O=C1C(=O)c2ccccc2C2=C1SCC1(CCN(C(=O)c3cnccc3C(=O)O)CC1)O2 [Compound 237, 3-[(5,6-dioxo-5,6-dihydro-1′H-spiro[naphtho[1,2-b][1,4]oxathiine-2,4′-piperidin]-1′-yl)carbonyl]isonicotinic acid] | – | 61.3 µM | > 100 µM | – | 66.1 µM | 94.2 µM | 1.4 | 49.3 µM | 48 µM
O=C1C(=O)c2ccccc2C2=C1SCC1(CCN(C3CCCCC3)CC1)O2 [Compound 258, 1′-cyclohexylspiro[naphtho[1,2-b][1,4]oxathiine-2,4′-piperidine]-5,6-dione] | – | 3.9 µM | 5.42 µM | – | 1.49 µM | 5.91 µM | 4.0 | 1.49 µM | 1.99 µM
